Reference: patent US6504005B1, “Long-acting drugs and pharmaceutical compositions comprising them” (Yeda Research and Development Co. Ltd., priority 1996, dated 2003)
Where two headings read alike, the source gives them in different places. Values belong to the compound of their own block, whether it stands above or below them.

Tests used:
[1] = system: penicillinase
[2] = system: Staphylococcus aureus; conditions: for Antimicrobial potency (%): relative to cephalexin control; for IC50: read-out: Concentration inhibiting 50% of bacterial growth (μM) (IC50)
Method: At the indicated time points, aliquots were withdrawn and analyzed for their potency to arrest growth of Staphylococcus aureus. Bacterial growth was then evaluated by increased turbidity measured spectroscopically at 700 nm.

[3] = system: experimental animal models; conditions: cited from earlier work
[4] = system: chymotrypsin and trypsin; test: Proteolysis by a mixture of chymotrypsin and trypsin (analytical HPLC); conditions: pH 7.4, 37° C., chymotrypsin and trypsin 0.5% w/w each
[5] = Solubility and appearance in aqueous buffer (pH 7.4)
[6] = background statement; cited from earlier work
[7] = biological target: insulin receptor tyrosine kinase (Rattus norvegicus, UniProt P15127); test: Insulin receptor tyrosine kinase activity, [poly(Glu4Tyr)] phosphorylating assay (cell-free)
Sequence of insulin receptor tyrosine kinase (P15127 27-759 limits assumed): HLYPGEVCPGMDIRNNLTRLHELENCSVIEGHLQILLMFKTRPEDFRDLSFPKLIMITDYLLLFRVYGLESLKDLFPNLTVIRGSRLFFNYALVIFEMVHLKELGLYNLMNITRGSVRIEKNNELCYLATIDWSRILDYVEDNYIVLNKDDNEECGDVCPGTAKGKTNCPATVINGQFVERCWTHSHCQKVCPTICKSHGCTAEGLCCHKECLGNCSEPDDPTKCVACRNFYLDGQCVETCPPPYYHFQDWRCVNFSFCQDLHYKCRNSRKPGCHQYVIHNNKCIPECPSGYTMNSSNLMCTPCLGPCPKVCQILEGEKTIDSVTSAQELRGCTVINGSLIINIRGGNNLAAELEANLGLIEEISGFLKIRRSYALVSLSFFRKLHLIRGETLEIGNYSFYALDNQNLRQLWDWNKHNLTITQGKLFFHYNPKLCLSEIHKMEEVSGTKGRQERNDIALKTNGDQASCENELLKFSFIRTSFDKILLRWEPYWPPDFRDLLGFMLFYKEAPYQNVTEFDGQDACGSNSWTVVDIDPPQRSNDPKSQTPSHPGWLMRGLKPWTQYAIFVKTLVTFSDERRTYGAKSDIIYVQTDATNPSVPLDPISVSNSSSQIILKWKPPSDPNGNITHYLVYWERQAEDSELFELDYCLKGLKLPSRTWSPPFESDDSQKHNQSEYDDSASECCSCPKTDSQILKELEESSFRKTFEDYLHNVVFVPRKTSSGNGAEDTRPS
Sequence of insulin receptor tyrosine kinase (P15127 764-1383 partner limits assumed): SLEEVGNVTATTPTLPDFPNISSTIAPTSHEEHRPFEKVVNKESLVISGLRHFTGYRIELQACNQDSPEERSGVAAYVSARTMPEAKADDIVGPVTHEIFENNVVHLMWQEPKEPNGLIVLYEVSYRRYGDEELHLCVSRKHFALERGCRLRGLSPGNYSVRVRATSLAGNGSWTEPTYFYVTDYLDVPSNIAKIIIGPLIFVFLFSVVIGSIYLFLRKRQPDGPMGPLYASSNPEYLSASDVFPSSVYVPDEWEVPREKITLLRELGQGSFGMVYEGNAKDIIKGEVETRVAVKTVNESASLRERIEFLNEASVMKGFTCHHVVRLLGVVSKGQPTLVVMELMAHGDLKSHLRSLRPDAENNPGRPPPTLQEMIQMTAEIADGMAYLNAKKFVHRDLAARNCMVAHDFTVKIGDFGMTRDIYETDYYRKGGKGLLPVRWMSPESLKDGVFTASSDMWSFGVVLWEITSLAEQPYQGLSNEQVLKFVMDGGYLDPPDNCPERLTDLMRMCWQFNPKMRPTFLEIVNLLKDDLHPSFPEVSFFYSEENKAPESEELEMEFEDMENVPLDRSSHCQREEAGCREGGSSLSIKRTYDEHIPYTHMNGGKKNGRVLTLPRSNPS

[8] = system: normal rats; test: Single intraperitoneal administration to normal rats, blood glucose levels; format: in vivo; conditions: single i.p. injection, 3 mg/rat
[9] = system: STZ-diabetic rats; test: Single subcutaneous administration to STZ-diabetic rats (blood glucose, daily weight gain); conditions: STZ rats, single s.c. 1 mg, followed seven days

Stability upon incubation ([2]; pH 7.4, 37° C.): significantly more stable
IC50 ([2]; after 1 day at pH 7.4, 37° C.): 15 µM
IC50 ([2]; after 3 days at pH 7.4, 37° C.): 9 µM
IC50 ([2]; after 6 days at pH 7.4, 37° C.): 4.5 µM
IC50 ([2]; no incubation): 23 µM
Compound: CC1=C(C(=O)O)N2C(=O)[C@@H](NC(=O)[C@H](NC(=O)OCC3c4ccccc4-c4ccccc43)c3ccccc3)[C@H]2SC1 [Fmoc-cephalexin, N-Fmoc-cephalexin]
Stability to hydrolysis by penicillinase [1]: more stable to hydrolysis by penicillinase than the parent compound
Antimicrobial potency (%) ([2]; after 1 day at pH 7.4, 37° C.): 10%
Antimicrobial potency (%) ([2]; after 3 days at pH 7.4, 37° C.): 59%
Antimicrobial potency (%) ([2]; after 6 days at pH 7.4, 37° C.): 100%
Antimicrobial potency (%) ([2]; after 6 days at pH 7.4, 37° C., listed as N-Fmoc-cephalexin): about 50%
Antimicrobial potency (%) ([2]; no incubation): ~6%

Compound: CC(C)C[C@H](NC(=O)OCC1c2ccccc2-c2ccccc21)C(=O)O [Fmoc-leucine]
Index of toxicity [3]: low index of toxicity

Compound: Native insulin: Human insulin, native hormone; parent drug and reference
Proteolysis t½ [4]: 30 min
Appearance in aqueous buffer (pH 7.4) [5]: clear
Solubility in aqueous buffer (pH 7.4, mg/ml) [5]: ˜4 or higher mg/ml
Half-life in plasma [6]: 5 to 6 min
Biological potency following incubation (2 days, 37° C., pH 8.5) ([7]; after 2 days, 37° C., pH 8.5): 100
Biological potency (%) ([7]; of native insulin potency, before incubation, [poly(Glu4Tyr)] phosphorylating assay): 100%
Concentration for half maximal effect ([7]; receptor tyrosine kinase assay): 20 ± 3 ng/mL
Period of hypoglycemia / reduced blood glucose [8]: about 12 hours
Recovery from hypoglycemia, t½ [8]: 480 min
Daily weight gain [9]: 0.57±0.08 g/rat/day
